Molecular target: Protein Kinase A (PKA) (Homo sapiens, UniProt P17612)
Experiment: pulsed field mobility shift assay screening for Protein Kinase A (PKA) inhibitors
Type: biochemical
Settings: from dose response curve (FIG. 10), 7 H9 concentrations 0.15-30.75 μM; pulsed field and standard (constant field) mobility shift assays predict same Ki; read-out: Ki value for the inhibitor
Description: In an exemplary embodiment, the pulsed field mobility shift assay was used for screening for Protein Kinase A (PKA) inhibitors. Samples were drawn from a 96 well plate into a microfluidic device through a capillary. The plate contained 7 different concentration samples (0.15 μM, 0.32 μM, 0.63 μM, 1.54 μM, 2.52 μM, 5.05 μM, and 30.75 μM) of H9 at randomly chosen wells. Except for a single well containing the 30.75 μM concentration of H9, two wells contained each of the other six concentrations of H9. The last column of each row of the well plate contained a marker used to indicate the end of row. In this embodiment, the marker was 1 μM of 100% converted PKA product. Once in the reaction channel of the microfluidic device, the pressure driven velocity of the sample was set at 0.028 cm/s and the applied electric field was set to 997 V/cm. […] Each sample was sipped for 30 seconds separated by a 30 second buffer sip. […] From the data in FIGS. 8 and 9, the parameter C1/C0, which is the ratio of the fluorescence measured while the electric field is on to the fluorescence measured while the field is off, was determined for each of the seven H9 concentrations. That parameter was also measured in the absence of H9 to provide a baseline value. The deviation from the baseline value ΔC/C=((C1/C0)|H9sample−(C1/C0)|buffer), was evaluated for each H9 sample. […]

- Ki: 3.5 µM
SMILES: NCCNS(=O)(=O)c1cccc2cnccc12 [H9]
